The structures appear in SMILES notation. The source made the active and inactive calls.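 The calls were made as follows: active = compounds giving half or more protection of infected cells from virus-caused growth loss, again on retest; inactive = the rest.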 Where only a bound is given, the exact number is not on record here.

The text below walks through data of PubChem BioAssay AID179 (DTP/NCI, 2004).

This test relates to CEM cells HIV-1 protection, formazan growth assay. Kind of test: NCI AIDS Antiviral Assay. Conditions: for IC50: measured here: growth of uninfected CEM cells. In short, it runs like this:
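Protection of CEM cells against HIV-1 measured as cell growth via soluble formazan read-out, with five concentrations tested on both infected and uninfected cells; failure to protect may reflect toxicity.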

Take `O=C1CC(=O)NC(=NN2C(=O)CSC2C(=O)c2ccco2)N1` (stereo not given): the 50% effective concentration (EC50) was 35.5 µM and the half-maximal inhibitory concentration (IC50) is 575 µM.
The corresponding values for `CC1=NC(=Cc2ccc([N+](=O)[O-])cc2)C(=O)N1n1c(-c2ccccc2)nc2ccccc2c1=O` are > 200 µM and 34.7 µM.
In the same order, the values of `CC1OC(OC2C(CO)OC(O[C@H]3CC[C@@]4(C)C(=CC[C@H]5[C@@H]6C[C@@H]7O[C@](O)(CC[C@H](CO)COC8OC(CO)C(O)C(O)C8O)[C@@H](C)[C@@H]7[C@@]6(C)CC[C@@H]54)C3)C(OC3OC(C)C(O)C(O)C3O)C2O)C(O)C(O)C1O` (stereo not given in full) are > 200 µM and > 200 µM.
`CN(C)C(=S)/N=c1\ssc(=S)n1-c1ccccc1`: the result was inactive.
Take `CCNC(=S)NNC(=O)c1nsc2ccccc12`: the EC50 is > 339 µM and the IC50 stood at 186 µM.
The corresponding values for `NC(=O)c1ccc([As](=O)(O)O)cc1N` are > 200 µM and > 200 µM.
In the same order, the values of `COc1cc(N(CCC#N)CCC#N)ccc1/C(N=Nc1ccccc1)=N/NC(=O)c1cc(Br)ccc1O` are > 100 µM and 17.8 µM.
In the case of `Brc1c2c(c(Br)c3nsnc13)N=S=N2`, the outcome was inactive.
On to `COc1cc2ccc3c4cc(OC)c(OC(C)C)cc4cnc3c2cc1OC`, for which the result was inactive.
`Cc1ccc2cc(NC(=O)CBr)c3ccc(C)nc3c2n1`: the EC50 is > 2 µM and the IC50 turned out to be 0.955 µM.
In the same order, the values of `Cc1cc(C)nc(NS(=O)(=O)c2ccc(NNC(=O)c3cccc4c(=O)c5ccccc5[nH]c34)cc2)n1` are > 200 µM and 31.6 µM.
With `C[C@H]1SC(c2ccc(Cl)cc2Cl)N(NC(=O)c2ccncc2)C1=O` (stereo not given in full), the EC50 is > 200 µM and the IC50 was 33.9 µM.
As for `O=S(O)c1cc(Cl)c(O)c(Cl)c1`, the outcome was inactive.
In the case of `O=C1C(c2ccccc2)=C2C(=C1c1ccccc1)c1cccc3cccc2c13`, the outcome was inactive.
As for `O=C(Nc1ccc(F)cc1)C(=O)C(C(=O)c1ccccc1F)C1OC(=O)c2ccccc21` (stereo not given), the EC50 is > 302 µM and the IC50 came out at 18.2 µM.
Regarding `Cc1cccc(C[P+](c2ccccc2)(c2ccccc2)c2ccccc2)c1`, the EC50 is > 200 µM and the IC50 was 0.631 µM.
The corresponding values for `COC1/C=C\C=C(/C)C(=O)Nc2cc3nc4ccc(Br)cc4oc-3c(c2=O)CC(C)CC(OC)C(O)C(C)/C=C(\C)C1OC(N)=O` (stereo not given) are > 0.2 µM and 0.0115 µM.
`CCOC(=O)Nc1nc2c(s1)c([N+](=O)[O-])cn2C`: the EC50 was > 69.2 µM and the IC50 is 27.5 µM.
In the case of `CN(C)/N=C(/CC(O)(C(F)(F)F)C(F)(F)F)c1ccc([N+](=O)[O-])cc1`, the EC50 was > 200 µM and the IC50 came to 31.6 µM.
The corresponding values for `COC1(OC)CC(CO)(CNc2nc(N)nc(Cl)c2/C=N\O)C1` are > 200 µM and 2.69 µM.
`O=C(NC1C=Nc2ccc([N+](=O)[O-])cc2NC1=O)c1ccc(Cl)cc1` (stereo not given): the EC50 is > 200 µM and the IC50 was > 200 µM.
As for `Cc1cc2c3ccccc3nc2c2cc[nH]c(C)c12`, the EC50 was > 110 µM and the IC50 amounted to 5.25 µM.
Regarding `COc1ccc(C2C(Cl)C(=O)N2NC(=O)Cc2ccccc2)cc1OC` (stereo not given), the EC50 was > 95.5 µM and the IC50 is > 95.5 µM.
With `C[N+]12CC3C(O)CC1CCC32` (stereo not given), the EC50 is > 1320 µM and the IC50 is > 1320 µM.
Take `C[C@]1(CO)CCC[C@@]2(C)C1CC[C@H]1CC3C[C@]12CC[C@]3(C)O` (stereo not given in full): the EC50 was > 23.4 µM and the IC50 is > 23.4 µM.
For `CCOC(=O)c1c(-c2ccc(OC)cc2)c(C#N)c(=S)n(C2OC(CO)C(O)C(O)C2O)c1-c1ccccc1` (stereo not given), the EC50 is > 200 µM and the IC50 is 34.7 µM.
Turning to `Cc1ccc2c(c1)C1(SCCC(=O)N1c1ccc(Cl)cc1)C(=O)N2` (stereo not given), the EC50 was > 191 µM and the IC50 is 91.2 µM.
For the compound `COC(=O)c1cc2c(=O)n(C)c3ccccc3n2c1C(=O)OC`, the EC50 was > 56.2 µM and the IC50 worked out at 32.4 µM.
On to `CN1CCCc2nc3ccccc3n2C1`, for which the EC50 is > 36.3 µM and the IC50 is > 36.3 µM.
As to `NC(N)=NS(=O)(=O)c1ccc(NC(=O)c2cccc3cc4ccccc4nc23)cc1`, the EC50 is > 53.7 µM and the IC50 was 16.2 µM.
The corresponding values for `O=C1c2cccc3cccc(c23)C(=O)N1NCCO` are > 200 µM and 162 µM.
Take `O=S(=O)(CC#CCO)c1c2ccccc2cc2ccccc12`: the result was inactive.
As for `CC(=O)NC(CCCNCc1ccccc1)C(=O)NCc1ccccc1` (stereo not given), the EC50 was > 708 µM and the IC50 is > 708 µM.
Consider `CC(NC(=O)OC(C)(C)C)C(=O)NC(Cc1ccccc1)C(=O)NCC(=O)ON=C1CCCC1` (stereo not given), for which the EC50 was > 200 µM and the half-inhibitory concentration (IC50) was 25.7 µM.
In the case of `CC1=NN(c2ccccc2)C(=O)/C1=C1/C(=O)N(c2ccccc2)N=C1C`, the EC50 was > 200 µM and the IC50 is > 200 µM.
On to `COC(=O)C(C)(C)C(OP(=S)(OC)OC)=C(C)C`, for which the EC50 is > 200 µM and the half-maximal inhibitory concentration (IC50) was > 200 µM.
On to `CN(C(=O)C12C3C4C1C1C4(C#N)C3C12C(=O)O)C(C)(C)C` (stereo not given), for which the EC50 was > 158 µM and the IC50 was > 158 µM.
Regarding `c1csc(C(NC2=NCCO2)C2CC2)c1` (stereo not given), the EC50 was > 200 µM and the IC50 amounted to 166 µM.
The corresponding values for `c1ccc(C2=NOCC3(c4ccccc4)OC23)cc1` (stereo not given) are > 31.6 µM and 12 µM.
The corresponding values for `CC1(C)Nc2cc3c(cc2-n2cccc21)oc1ccccc13` are > 200 µM and 9.12 µM.
In the case of `CCOC(=O)/C(C#N)=C/c1ccc(F)cc1`, the EC50 is > 162 µM and the IC50 was > 162 µM.
With `Brc1ccc(-c2[nH]c3ccccc3c2N=Nc2ccccc2)cc1`, the EC50 was > 200 µM and the IC50 was 13.5 µM.
Consider `CN(C)C1(C#N)CCC2(CC1)OCCO2`, for which the outcome was inactive.
As to `CC(C)(C#N)C(C)(C)SSC(C)(C)C(C)(C)C#N`, the EC50 was > 178 µM and the concentration for half-maximal inhibition (IC50) was > 178 µM.
In the case of `Cc1ncc(CO)c(CO)c1OCC(O)CN1CCN(C(=O)c2ccccc2)CC1` (stereo not given), the EC50 was > 200 µM and the IC50 is > 200 µM.
In the case of `COc1ccc(-n2[nH]nc(C(N)=O)c2=O)cc1`, the EC50 was > 200 µM and the half-inhibitory concentration (IC50) was > 200 µM.
With `C/C(=C/C(=O)O)CC/C=C(/C)C(=O)O`, the EC50 was > 479 µM and the IC50 was > 479 µM.
Turning to `Cc1cc(O)c(/C=N/C(=O)NN)c(=O)o1`, the EC50 is > 200 µM and the IC50 was > 200 µM.
For `COC(=O)c1onc(-c2c(OC)cc(OC)cc2OC)c1C(=O)OC`, the EC50 was > 141 µM and the IC50 stood at 115 µM.
In the same order, the values of `O=C(NCCCNCCCNC(=O)c1cc(-c2ccccc2)nc2ccccc12)c1cc(-c2ccccc2)nc2ccccc12` are > 200 µM and 2.82 µM.
For the compound `CCCCCCCCCCCCCCCCCCN1C(=O)c2ccccc2[Se]1=O` (stereo not given), the EC50 is > 0.813 µM and the concentration for half-maximal inhibition (IC50) is > 0.813 µM.
`NC(=O)c1ccc2c(c1)S(=O)(=O)c1ccccc1C2=O`: the EC50 is > 200 µM and the IC50 is > 200 µM.
On to `CC(C)(C)OC(=O)NCCCCC(N)C(N)=O` (stereo not given), for which the EC50 was > 200 µM and the IC50 is > 200 µM.
In the case of `CCOC(=O)/C=C1\CONC(c2ccc(OC)cc2)=N1`, the EC50 was > 19.1 µM and the IC50 was > 19.1 µM.
As for `C[C@@]12C[C@@H](c3ccccc3O1)N1CCCSC1=N2`, the EC50 is 74.1 µM and the IC50 was > 200 µM.
For `O=C1C=C(Nc2ccc([N+](=O)[O-])cc2)c2ccccc2C1=O`, the EC50 is > 6.76 µM and the IC50 was > 6.76 µM.
On to `CCCC#CC(O)(C(=O)OC1CCN(C)CC1)C1CCCCC1` (stereo not given), for which the EC50 was > 200 µM and the IC50 is > 200 µM.
For the compound `C=C1CC[N+]2(C)CCCC12` (stereo not given), the EC50 was > 1150 µM and the IC50 was > 1150 µM.
Take `Brc1cc2[nH]c(-c3ccccc3)c(Br)c2c(Br)c1Br`: the EC50 was > 200 µM and the IC50 worked out at 5.13 µM.
Regarding `CCOC(=O)CN1C(=O)c2cc([N+](=O)[O-])cc3cc([N+](=O)[O-])cc(c23)C1=O`, the result was inactive.
As to `COc1cc(/C=C(\C#N)C(=O)c2ccccc2)ccc1O`, the EC50 was > 646 µM and the IC50 amounted to 490 µM.
The corresponding values for `CCc1cccc(NC(=O)c2cc(/C=C/c3ccccc3)[nH]c(=S)n2)c1` are > 347 µM and > 347 µM.
Turning to `N/C(=N\N=C/c1cc(Cl)cc(Cl)c1O)NO`, the outcome was inactive.
On to `Cc1c2c(nc3ccccc13)C(=O)c1cccnc1C2=O`, for which the EC50 was > 100 µM and the IC50 is 13.5 µM.
As to `COC(=O)CCC(=O)c1ccc2c(c1)CCC2`, the EC50 is > 200 µM and the half-maximal inhibitory concentration (IC50) is > 200 µM.
With `CC1CCCC2=C1C(c1ccc(Cl)cc1)n1c(s/c(=C\c3ccc(Cl)cc3)c1=O)=N2` (stereo not given), the result was inactive.
As for `NC(=O)c1ncn(Cc2ccccc2)c1CNC(N)=S`, the result was inactive.
In the case of `Cc1ccc(-c2c(C#N)c(-c3ccc(N(C)C)cc3)c(C#N)c(=O)n2NS(=O)(=O)c2ccccc2)cc1`, the EC50 is > 200 µM and the half-inhibitory concentration (IC50) is 18.2 µM.
For `Cc1nc2nnc(C)n2c2c1C(=O)Nc1ccccc1N2`, the EC50 is > 200 µM and the IC50 was > 200 µM.
As to `COC(=O)c1coc(CC/C(C)=C/c2ccccc2)n1`, the EC50 is > 200 µM and the IC50 came out at 126 µM.
In the case of `NC(=O)c1ccc2c(c1)-c1nc-2nc2[n-]c(nc3nc(nc4[n-]c(n1)c1ccc(C(N)=O)cc41)-c1ccc(C(N)=O)cc1-3)c1ccc(C(N)=O)cc21.[Co+2]`, the EC50 is > 9.77 µM and the IC50 came out at 6.61 µM.
In the same order, the values of `COc1c(OC)c(OC)c2c(=O)cc(-c3ccc(OC(C)=O)cc3)oc2c1OC` are > 200 µM and 19.5 µM.
As to `CCOP(=O)(OCC)C(Nc1ccc(F)cc1)c1cccc([N+](=O)[O-])c1` (stereo not given), the EC50 is > 200 µM and the IC50 turned out to be 55 µM.

Usually EC50 stands for the concentration needed to bring the measured effect to its halfway point. For orientation: IC50 means the concentration that inhibits the measured activity by half. Lower therefore signals higher potency.
